Source: paper PMC4728423, “Natural and synthetic flavonoid modulation of TRPC5 channels” (British Journal of Pharmacology, 2016)
Blank lines part the entries; values can stand above or below the compound they belong to.

Assays:
[1] = target: T1, human TRPC5 (Homo sapiens, UniProt Q9UL62); assay: Gd3+-evoked Ca2+ entry in TRPC5-expressing (Tet+) HEK 293 cells; assay type: cell-based
T1 construct: expressed in transfected cells
T1 sequence (Q9UL62 1-973): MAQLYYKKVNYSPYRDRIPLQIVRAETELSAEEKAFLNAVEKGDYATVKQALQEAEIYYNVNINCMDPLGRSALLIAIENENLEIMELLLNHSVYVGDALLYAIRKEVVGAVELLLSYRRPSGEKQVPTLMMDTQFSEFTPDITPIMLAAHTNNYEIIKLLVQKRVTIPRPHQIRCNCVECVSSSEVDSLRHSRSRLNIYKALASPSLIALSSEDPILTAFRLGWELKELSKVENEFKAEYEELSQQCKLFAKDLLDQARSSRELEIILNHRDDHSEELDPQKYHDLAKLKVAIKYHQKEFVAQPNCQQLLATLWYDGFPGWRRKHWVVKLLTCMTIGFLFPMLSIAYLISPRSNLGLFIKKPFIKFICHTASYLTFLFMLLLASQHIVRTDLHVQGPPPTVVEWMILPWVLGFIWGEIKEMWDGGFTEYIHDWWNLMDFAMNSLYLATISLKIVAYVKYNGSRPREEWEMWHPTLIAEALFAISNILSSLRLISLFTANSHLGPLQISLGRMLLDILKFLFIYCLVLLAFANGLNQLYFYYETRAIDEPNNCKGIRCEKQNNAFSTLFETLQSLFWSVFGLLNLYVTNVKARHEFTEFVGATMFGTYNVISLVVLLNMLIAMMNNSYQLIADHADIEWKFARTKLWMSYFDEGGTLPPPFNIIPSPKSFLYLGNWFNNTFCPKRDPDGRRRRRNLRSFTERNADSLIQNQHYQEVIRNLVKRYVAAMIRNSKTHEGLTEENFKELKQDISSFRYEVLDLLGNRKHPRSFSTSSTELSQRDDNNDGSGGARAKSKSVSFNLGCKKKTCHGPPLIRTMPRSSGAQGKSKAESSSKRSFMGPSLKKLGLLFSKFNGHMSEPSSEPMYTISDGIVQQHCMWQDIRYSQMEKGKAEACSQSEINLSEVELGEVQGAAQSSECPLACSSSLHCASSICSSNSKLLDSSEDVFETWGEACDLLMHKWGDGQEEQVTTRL

[2] = target: T2, TRPC4 (Homo sapiens, UniProt Q9UBN4); assay: Outside-out patch recordings from TRPC4 Tet+ cells stimulated by (-)-Englerin A; assay type: cell-based; details: 5 μM compound, 100 nM (-)-Englerin A
T2 construct: expressed in transfected cells
T2 sequence (Q9UBN4 1-893 isoform Q9UBN4-2): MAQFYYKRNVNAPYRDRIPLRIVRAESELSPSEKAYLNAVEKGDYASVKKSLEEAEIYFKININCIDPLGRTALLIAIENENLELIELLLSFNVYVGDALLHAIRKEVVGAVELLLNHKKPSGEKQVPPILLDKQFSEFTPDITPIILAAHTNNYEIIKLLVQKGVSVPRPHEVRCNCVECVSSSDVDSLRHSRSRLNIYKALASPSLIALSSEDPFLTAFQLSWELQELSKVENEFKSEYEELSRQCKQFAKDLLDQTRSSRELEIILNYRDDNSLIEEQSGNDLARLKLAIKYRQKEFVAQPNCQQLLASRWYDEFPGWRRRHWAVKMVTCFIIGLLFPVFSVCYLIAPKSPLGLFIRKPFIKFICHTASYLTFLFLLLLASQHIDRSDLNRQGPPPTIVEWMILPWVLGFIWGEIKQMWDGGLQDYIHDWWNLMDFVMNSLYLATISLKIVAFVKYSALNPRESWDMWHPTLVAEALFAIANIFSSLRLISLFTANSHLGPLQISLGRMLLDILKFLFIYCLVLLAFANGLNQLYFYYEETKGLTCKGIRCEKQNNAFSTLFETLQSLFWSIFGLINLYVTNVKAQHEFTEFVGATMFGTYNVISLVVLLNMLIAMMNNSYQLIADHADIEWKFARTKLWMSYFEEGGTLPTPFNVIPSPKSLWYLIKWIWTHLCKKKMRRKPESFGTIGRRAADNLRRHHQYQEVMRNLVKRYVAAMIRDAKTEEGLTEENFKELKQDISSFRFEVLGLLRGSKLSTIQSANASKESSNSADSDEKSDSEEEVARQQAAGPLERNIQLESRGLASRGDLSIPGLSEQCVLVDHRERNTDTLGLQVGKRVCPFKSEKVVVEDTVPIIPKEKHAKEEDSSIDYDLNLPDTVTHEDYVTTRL

[3] = target: T1, human TRPC5; assay: S1P- or LPC-evoked Ca2+ entry in TRPC5 (Tet+) HEK 293 cells; assay type: cell-based; details: 10 μM compound, fura-2
[4] = system: endogenous Ca2+ entry mechanism; assay: Ca2+ responses in control non-induced (Tet-) HEK cells with extracellular Ca2+; assay type: cell-based, human; details: 10 μM compound
[5] = target: T3, TRPV4 channels (Homo sapiens, UniProt Q9HBA0); assay: 4alphaPDD-evoked Ca2+ entry in CHO K1 cells expressing TRPV4; assay type: cell-based; details: 10 μM compound, 1 μM 4αPDD, fluo-4
T3 construct: expressed in transfected cells

[6] = target: T4, TRPC3 channels (Homo sapiens, UniProt Q13507); assay: OAG-evoked Ca2+ entry in cells overexpressing TRPC3; assay type: cell-based; details: 10 μM compound, 50 μM OAG, fura-2
T4 construct: expressed in transfected cells
T4 sequence (Q13507 74-921 limits assumed): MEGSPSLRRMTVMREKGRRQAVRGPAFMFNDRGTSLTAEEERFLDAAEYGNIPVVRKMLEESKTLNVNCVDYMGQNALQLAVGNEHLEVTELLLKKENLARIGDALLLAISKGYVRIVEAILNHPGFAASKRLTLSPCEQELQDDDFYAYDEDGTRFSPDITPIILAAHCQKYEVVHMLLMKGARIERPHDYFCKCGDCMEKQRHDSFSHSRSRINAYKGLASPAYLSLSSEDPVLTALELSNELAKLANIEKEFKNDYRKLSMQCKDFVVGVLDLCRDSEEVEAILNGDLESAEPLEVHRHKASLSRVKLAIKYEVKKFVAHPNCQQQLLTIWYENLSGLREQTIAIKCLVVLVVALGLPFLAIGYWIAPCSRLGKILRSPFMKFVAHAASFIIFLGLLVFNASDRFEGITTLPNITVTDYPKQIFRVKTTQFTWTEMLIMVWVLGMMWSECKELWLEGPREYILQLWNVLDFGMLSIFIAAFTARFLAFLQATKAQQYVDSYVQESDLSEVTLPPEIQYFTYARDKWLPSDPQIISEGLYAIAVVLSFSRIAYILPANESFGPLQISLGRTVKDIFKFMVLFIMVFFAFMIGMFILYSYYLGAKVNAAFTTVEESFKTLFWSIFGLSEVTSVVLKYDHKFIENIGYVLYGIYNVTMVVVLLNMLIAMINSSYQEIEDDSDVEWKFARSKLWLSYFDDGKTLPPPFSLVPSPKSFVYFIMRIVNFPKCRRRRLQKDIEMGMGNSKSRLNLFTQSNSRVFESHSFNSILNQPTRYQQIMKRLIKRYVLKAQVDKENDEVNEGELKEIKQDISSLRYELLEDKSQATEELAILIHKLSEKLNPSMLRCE

[7] = target: T5, TRPC1-TRPC5 heteromeric channels (Homo sapiens, UniProt P48995+Q9UL62); assay: Whole-cell recordings of TRPC1-TRPC5 heteromeric channels stimulated by (-)-Englerin A; assay type: cell-based; details: 5 μM compound, 100 nM (-)-Englerin A
T5 construct: expressed in transfected cells; host or cells: HEK 293-MSR, transient, Lipofectamine 2000

[8] = target: T6, TRPM2 channels (Homo sapiens, UniProt O94759); assay: H2O2-evoked Ca2+ entry in cells overexpressing TRPM2; assay type: cell-based; details: 10 μM compound, 1 mM H2O2, fura-2
T6 construct: expressed in transfected cells

[9] = system: endogenous Ca2+ release signal; assay: Endogenous Ca2+ release in non-induced (Tet-) TRPC5 HEK cells; assay type: cell-based, human; details: 10 μM compound, no extracellular Ca2+
[10] = target: T1, human TRPC5; assay: Outside-out patch recordings from TRPC5 Tet+ cells; assay type: cell-based; details: outside-out patch, (-)-Englerin A-activated TRPC5
[11] = target: T1, human TRPC5; assay: Whole-cell patch clamp of TRPC5-expressing (Tet+) HEK 293 cells; assay type: cell-based; details: 10 μM compound
[12] = system: GABA-evoked ionic currents; design: method as in Goutman et al., 2003; details: ref Goutman et al., 2003; cited from earlier work
[13] = system: TRPV4 channels; design: method as in Ma et al., 2012; details: ref Ma et al., 2012; cited from earlier work
[14] = system: 3T3-L1 cells; details: ref Harmon and Harp, 2001; cited from earlier work
[15] = system: TRPC5; design: method as in Wong et al., 2010; details: ref Wong et al., 2010; cited from earlier work

T3 sequence (Q9HBA0 whole entry): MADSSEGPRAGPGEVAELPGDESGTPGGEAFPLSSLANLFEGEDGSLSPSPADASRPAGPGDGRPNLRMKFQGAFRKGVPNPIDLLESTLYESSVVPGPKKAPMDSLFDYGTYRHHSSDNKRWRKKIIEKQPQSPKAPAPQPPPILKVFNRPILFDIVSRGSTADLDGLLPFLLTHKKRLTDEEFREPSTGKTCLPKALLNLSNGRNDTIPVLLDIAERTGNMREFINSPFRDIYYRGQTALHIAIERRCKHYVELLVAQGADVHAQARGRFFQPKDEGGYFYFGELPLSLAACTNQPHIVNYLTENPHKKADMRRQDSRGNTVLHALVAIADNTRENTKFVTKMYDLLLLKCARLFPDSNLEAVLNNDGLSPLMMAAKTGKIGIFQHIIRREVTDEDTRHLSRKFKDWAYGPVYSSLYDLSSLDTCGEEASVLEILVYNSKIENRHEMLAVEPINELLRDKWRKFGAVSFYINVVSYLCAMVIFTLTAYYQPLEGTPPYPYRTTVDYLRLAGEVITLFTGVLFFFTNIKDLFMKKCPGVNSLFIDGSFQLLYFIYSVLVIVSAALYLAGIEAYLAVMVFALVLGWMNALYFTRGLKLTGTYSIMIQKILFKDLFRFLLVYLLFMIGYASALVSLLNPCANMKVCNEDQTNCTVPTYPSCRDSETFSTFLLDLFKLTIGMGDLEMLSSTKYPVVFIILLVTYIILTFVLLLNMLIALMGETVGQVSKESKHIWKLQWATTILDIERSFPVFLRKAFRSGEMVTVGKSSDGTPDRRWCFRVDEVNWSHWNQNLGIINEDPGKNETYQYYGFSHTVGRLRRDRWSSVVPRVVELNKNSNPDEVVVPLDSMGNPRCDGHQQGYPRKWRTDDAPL
T5 sequence (P48995 whole entry, one chain of several): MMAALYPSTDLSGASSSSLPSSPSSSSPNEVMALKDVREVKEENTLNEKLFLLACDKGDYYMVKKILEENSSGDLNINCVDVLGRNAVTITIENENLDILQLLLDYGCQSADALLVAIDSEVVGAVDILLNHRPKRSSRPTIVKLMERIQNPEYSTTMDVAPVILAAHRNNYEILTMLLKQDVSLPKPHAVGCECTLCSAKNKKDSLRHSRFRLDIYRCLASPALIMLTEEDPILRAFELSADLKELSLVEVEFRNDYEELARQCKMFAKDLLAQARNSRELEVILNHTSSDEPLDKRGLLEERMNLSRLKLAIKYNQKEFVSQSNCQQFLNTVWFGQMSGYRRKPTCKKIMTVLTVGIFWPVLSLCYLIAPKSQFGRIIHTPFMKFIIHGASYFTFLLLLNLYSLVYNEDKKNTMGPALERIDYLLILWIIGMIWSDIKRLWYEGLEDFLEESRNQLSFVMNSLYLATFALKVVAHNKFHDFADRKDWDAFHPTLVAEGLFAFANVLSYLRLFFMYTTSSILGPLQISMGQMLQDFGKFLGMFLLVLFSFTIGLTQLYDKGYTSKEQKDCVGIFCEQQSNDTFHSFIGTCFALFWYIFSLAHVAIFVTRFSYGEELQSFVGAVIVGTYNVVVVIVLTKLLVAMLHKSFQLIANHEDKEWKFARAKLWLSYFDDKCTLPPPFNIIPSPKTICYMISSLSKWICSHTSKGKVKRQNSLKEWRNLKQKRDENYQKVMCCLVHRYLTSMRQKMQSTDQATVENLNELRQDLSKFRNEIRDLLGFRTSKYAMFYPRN
T6 sequence (O94759 whole entry): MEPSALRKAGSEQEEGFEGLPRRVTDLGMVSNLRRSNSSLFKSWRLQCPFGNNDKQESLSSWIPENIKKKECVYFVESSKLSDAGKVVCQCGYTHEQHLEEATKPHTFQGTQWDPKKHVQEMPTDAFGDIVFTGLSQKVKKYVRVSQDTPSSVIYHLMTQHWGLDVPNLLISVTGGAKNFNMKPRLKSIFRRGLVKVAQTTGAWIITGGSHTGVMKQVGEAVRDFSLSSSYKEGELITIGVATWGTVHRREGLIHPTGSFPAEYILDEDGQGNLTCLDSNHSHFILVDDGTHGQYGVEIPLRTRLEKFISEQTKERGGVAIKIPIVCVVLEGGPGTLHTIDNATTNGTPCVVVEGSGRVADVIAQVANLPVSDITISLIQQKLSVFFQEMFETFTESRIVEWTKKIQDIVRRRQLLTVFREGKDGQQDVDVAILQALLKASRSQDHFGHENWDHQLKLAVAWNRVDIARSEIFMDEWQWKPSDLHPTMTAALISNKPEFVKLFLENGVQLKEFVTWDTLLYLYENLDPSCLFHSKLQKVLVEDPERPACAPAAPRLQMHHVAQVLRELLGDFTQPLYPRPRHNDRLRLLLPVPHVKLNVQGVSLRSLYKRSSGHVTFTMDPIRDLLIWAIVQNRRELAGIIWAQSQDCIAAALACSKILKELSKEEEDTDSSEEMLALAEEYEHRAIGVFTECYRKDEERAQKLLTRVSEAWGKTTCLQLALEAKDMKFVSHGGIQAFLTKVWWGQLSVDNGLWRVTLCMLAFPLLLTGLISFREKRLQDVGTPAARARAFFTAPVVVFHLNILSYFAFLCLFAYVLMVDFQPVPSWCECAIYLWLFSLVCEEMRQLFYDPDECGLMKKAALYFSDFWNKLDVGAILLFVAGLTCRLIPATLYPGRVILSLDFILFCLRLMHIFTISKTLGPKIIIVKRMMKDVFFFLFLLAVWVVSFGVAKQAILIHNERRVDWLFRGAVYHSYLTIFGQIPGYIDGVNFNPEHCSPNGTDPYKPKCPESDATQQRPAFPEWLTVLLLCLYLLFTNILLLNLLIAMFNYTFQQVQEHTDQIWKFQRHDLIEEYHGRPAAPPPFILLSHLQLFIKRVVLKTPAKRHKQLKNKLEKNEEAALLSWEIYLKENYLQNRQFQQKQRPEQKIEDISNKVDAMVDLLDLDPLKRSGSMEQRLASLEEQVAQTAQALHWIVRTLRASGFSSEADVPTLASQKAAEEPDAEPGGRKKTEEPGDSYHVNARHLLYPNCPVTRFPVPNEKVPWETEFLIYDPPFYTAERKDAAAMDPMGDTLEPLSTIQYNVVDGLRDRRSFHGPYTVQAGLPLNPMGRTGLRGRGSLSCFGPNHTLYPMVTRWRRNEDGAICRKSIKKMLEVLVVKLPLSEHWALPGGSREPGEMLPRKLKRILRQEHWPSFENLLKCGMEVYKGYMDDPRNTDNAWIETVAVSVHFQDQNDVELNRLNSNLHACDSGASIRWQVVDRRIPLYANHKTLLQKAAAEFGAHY

IC50 ([1]; TRPC5 (Tet+) HEK 293, Gd3+, fura-2, read-out: IC50, inhibition of Gd3+-evoked Ca2+ entry): 280 nM
average inhibition of TRPC4 current [2]: ~ 80%
effect on S1P-evoked Ca2+ entry ([3]; 5 μM S1P): stimulated rather than inhibited
effect on LPC-evoked Ca2+ entry ([3]; 10 μM LPC): enhanced
effect on Ca2+ entry through TRPV4 channels [5]: significant stimulatory effect
effect on Ca2+ entry through TRPC3 channels [6]: did not reach statistical significance
inhibition of TRPC1-TRPC5 heteromeric channel current [7]: ~ 20%
effect on TRPM2 channels [8]: no effect
recovery on washout [10]: fast recovery on washout
SMILES: O=c1c(O)c(-c2ccccc2Br)oc2cc(O)cc(O)c12 [AM12, 3,5,7‐trihydroxy‐2‐(2‐bromophenyl)‐4H‐chromen‐4‐one]
effect on S1P and LPC responses in Tet- cells [4]: no effects
effect on ATP response in the presence of extracellular Ca2+ ([4]; 100 μM ATP): enhanced
effect on Ca2+ release evoked by thapsigargin ([9]; 3 μM thapsigargin): no effect
effect on Ca2+ release evoked by ATP ([9]; 100 μM ATP): no effect

effect on TRPC5-mediated whole-cell current (no other activator) [11]: stimulate
effect on Gd3+-evoked Ca2+ entry (natural flavonoid screen) ([1]; 10 μM, 50 μM Gd3+, XRhod-1): stimulatory effect
SMILES: O=c1cc(-c2ccc(O)cc2)oc2cc(O)cc(O)c12 [Apigenin]
effect on GABA-evoked ionic currents [12]: inhibited
effect on TRPV4 channels [13]: stimulating

SMILES: O=c1c(-c2ccc(O)cc2)coc2cc(O)cc(O)c12 [genistein]
effect on 3T3-L1 cell proliferation and differentiation [14]: inhibited proliferation and subsequent differentiation
effect on TRPC5 [15]: stimulated
